Reference: patent US8314082B2, “Stilbene derivatives for ADP-ribosyl cyclase inhibitors” (Industrial Cooperation Foundation Chonbuk National …, priority 2006, dated 2012)

System: 2 kidney 1 clip hypertensive rat model
Assay: Systolic blood pressure in 2 kidney 1 clip hypertensive rat model
Format: in vivo, Sprague-Dawley male rats
Conditions: intraperitoneal 428 μg/200 g/d, from day 7 after surgery for 7 weeks, tail plethysmography
Procedure: Renovascular hypertension was produced by 2KlC Sprague-Dawley male rats (7-9 weeks old) weighing 200 to 220-g were anesthetized with ketamine (100 mg/kg, intra-peritoneally) and rumpen (5 mg/kg, intraperitoneally). The left kidney was exposed through the median abdominal incision, and the renal artery was separated from the renal vein with caution. Then, a silver clip with 0.15 mm slit was placed around the renal artery. The sham procedure was performed, including the entire surgery with the exception of arterial clipping. To examine the effect of 2,2′-DHAB in the 2KlC model, we administered it at days 7 after the surgery for 7 weeks. 2,2′-DHAB was injected intraperitoneally with 58% DMSO plus saline at a dose of 1.5 μl/g body weight (428 μg/200 g/d). Sham group and control 2KlC received DMSO plus saline treatment. The dose of injected DMSO had no side effect on blood pressure (BP) or any other parameters. Systolic blood pressure was measured by a method using tail plethysmography in conscious rats once a week, from the day prior to surgery until the day of sacrifice.

In the case of `Oc1ccccc1/N=N/c1ccccc1O` [2,2′-DHAB, 2,2′-Dihydroxyazobenzene], the “effect on elevation of systolic blood pressure” value is reported as “prevented the elevation of blood pressure”.
